Assay results taken from ChEMBL document CHEMBL1201862, “PubChem BioAssay data set” (2004).
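All cell lines were grown in 96-well plates and treated with compound for 48 hours. GI50: concentration for 50% inhibition of growth.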 Activity calls are given as the source filed them. No stated cut-off is given here; in the data, active = GI50 up to about 1.1 µM and inactive = higher.

Experiments:
Assay in all cases: NCI anticancer screen, dose series, 48 h
DU-145 = tested on: DU-145
A549 = tested on: A549
MOLT-4 = tested on: MOLT-4
786-0 = tested on: 786-0
MCF7 = tested on: MCF7
LOX IMVI = tested on: LOX IMVI
IGROV-1 = tested on: IGROV-1
OVCAR-5 = tested on: OVCAR-5
UACC-257 = tested on: UACC-257
Malme-3M = tested on: Malme-3M
OVCAR-3 = tested on: OVCAR-3
RPMI-8226 = tested on: RPMI-8226
KM12 = tested on: KM12
HT-29 = tested on: HT-29
Hs-578T = tested on: Hs-578T
HCC 2998 = tested on: HCC 2998
NCI-H522 = tested on: NCI-H522
HOP-92 = tested on: HOP-92
SK-MEL-2 = tested on: SK-MEL-2
A498 = tested on: A498

Measured: GI50

O=C(CN1CCCCC1)Nc1ccc2sc3ccccc3c(=O)c2n1
inactive: DU-145 20.3 µM | A549 15 µM | MOLT-4 2.69 µM | 786-0 12.9 µM | MCF7 19.5 µM | LOX IMVI 7.01 µM | IGROV-1 16 µM | OVCAR-5 18.2 µM | UACC-257 18.2 µM | Malme-3M 32.1 µM | OVCAR-3 31.5 µM | RPMI-8226 13.1 µM | KM12 19.1 µM | HT-29 30.3 µM | Hs-578T 18.8 µM | HCC 2998 14.8 µM | NCI-H522 6.44 µM | HOP-92 15.1 µM | SK-MEL-2 18.6 µM

Cc1cccc(CC(Cc2c(C)cccc2C(=O)O)C(=O)O)c1 (centres undefined)
inactive: DU-145 > 100 µM | A549 > 100 µM | MOLT-4 > 100 µM | 786-0 > 100 µM | MCF7 > 100 µM | LOX IMVI > 100 µM | IGROV-1 > 100 µM | OVCAR-5 > 100 µM | UACC-257 > 100 µM | Malme-3M > 100 µM | A498 > 100 µM | OVCAR-3 > 100 µM | RPMI-8226 > 100 µM | KM12 > 100 µM | HT-29 > 100 µM | Hs-578T > 100 µM | HCC 2998 67.6 µM | NCI-H522 > 100 µM | SK-MEL-2 58.7 µM

Nc1ccc(S(=O)(=O)Nc2nc3ccccc3nc2N2CCCCCC2)cc1
inactive: DU-145 30.9 µM | A549 27.7 µM | MOLT-4 16 µM | 786-0 30.2 µM | MCF7 38.9 µM | LOX IMVI 17.3 µM | IGROV-1 34.4 µM | OVCAR-5 38.5 µM | UACC-257 32.9 µM | Malme-3M 34.4 µM | OVCAR-3 18.3 µM | RPMI-8226 14.6 µM | KM12 30.9 µM | HT-29 33.3 µM | Hs-578T 37.2 µM | HCC 2998 16.6 µM | NCI-H522 29 µM | HOP-92 23.4 µM | SK-MEL-2 20 µM

COc1cc2nc(-c3cccs3)[nH]c(=O)c2cc1OC
inactive: DU-145 > 100 µM | A549 > 100 µM | 786-0 > 100 µM | MCF7 > 100 µM | LOX IMVI > 100 µM | IGROV-1 19.9 µM | OVCAR-5 28.6 µM | UACC-257 > 100 µM | Malme-3M > 100 µM | A498 > 100 µM | OVCAR-3 > 100 µM | RPMI-8226 65.5 µM | KM12 > 100 µM | HT-29 > 100 µM | Hs-578T > 100 µM | NCI-H522 > 100 µM | HOP-92 > 100 µM | SK-MEL-2 > 100 µM

O=C1Nc2c(Cl)cccc2/C1=N/Nc1ccccc1[N+](=O)[O-]
inactive: DU-145 16.4 µM | A549 21.8 µM | MOLT-4 31.3 µM | 786-0 10.1 µM | MCF7 14.7 µM | LOX IMVI 11.8 µM | IGROV-1 1.9 µM | OVCAR-5 50.7 µM | UACC-257 22.4 µM | Malme-3M 3.58 µM | A498 28.2 µM | OVCAR-3 44.4 µM | RPMI-8226 25 µM | KM12 8.89 µM | HT-29 12.5 µM | Hs-578T 7.87 µM | HCC 2998 32.7 µM | NCI-H522 4.45 µM | SK-MEL-2 70.6 µM

N/C(=N\N=C\c1cc2ccccc2s1)c1cnccn1
inactive: DU-145 > 100 µM | A549 > 100 µM | 786-0 > 100 µM | MCF7 5.24 µM | LOX IMVI > 100 µM | IGROV-1 > 100 µM | OVCAR-5 > 100 µM | UACC-257 > 100 µM | A498 > 100 µM | OVCAR-3 > 100 µM | RPMI-8226 > 100 µM | KM12 > 100 µM | HT-29 > 100 µM | Hs-578T > 100 µM | NCI-H522 > 100 µM | HOP-92 > 100 µM | SK-MEL-2 > 100 µM

CCCCSCc1nc2nc(Cl)c(Cl)nc2[nH]1
inactive: DU-145 32.5 µM | A549 28.8 µM | MOLT-4 19.5 µM | 786-0 25.6 µM | MCF7 23.6 µM | LOX IMVI 21.7 µM | IGROV-1 33.1 µM | OVCAR-5 30.9 µM | UACC-257 16.1 µM | Malme-3M 20.3 µM | A498 21.8 µM | OVCAR-3 12.4 µM | RPMI-8226 12.9 µM | KM12 29.8 µM | HT-29 30.8 µM | Hs-578T 35.6 µM | NCI-H522 17.8 µM | HOP-92 24.5 µM | SK-MEL-2 18.7 µM

CCN1CCC(O)(c2ccc([N+](=O)[O-])cc2)C(C(=O)c2ccc([N+](=O)[O-])cc2)C1 (centres undefined)
inactive: DU-145 17.7 µM | A549 69 µM | MOLT-4 19.3 µM | 786-0 15.5 µM | MCF7 15.4 µM | LOX IMVI 21.6 µM | IGROV-1 18.2 µM | OVCAR-5 52.6 µM | UACC-257 17.9 µM | Malme-3M 20.1 µM | A498 22 µM | OVCAR-3 14.8 µM | RPMI-8226 3.33 µM | KM12 17 µM | HT-29 32.1 µM | Hs-578T 23.2 µM | HCC 2998 17.7 µM | NCI-H522 3.33 µM | SK-MEL-2 43.2 µM
